The text below walks through data of ChEMBL document CHEMBL5634121, “Discovery of novel G9a/GLP covalent inhibitors for the treatment of triple-negative breast cancer” (Eur J Med Chem, 2023).

The source made the active and inactive calls. The calls are words filed in the database; no cut-off is given here.

Series [1] deals with T1, Histone-lysine N-methyltransferase EHMT1 (Homo sapiens) (UniProt Q9H9B1).
T1 sequence (whole entry): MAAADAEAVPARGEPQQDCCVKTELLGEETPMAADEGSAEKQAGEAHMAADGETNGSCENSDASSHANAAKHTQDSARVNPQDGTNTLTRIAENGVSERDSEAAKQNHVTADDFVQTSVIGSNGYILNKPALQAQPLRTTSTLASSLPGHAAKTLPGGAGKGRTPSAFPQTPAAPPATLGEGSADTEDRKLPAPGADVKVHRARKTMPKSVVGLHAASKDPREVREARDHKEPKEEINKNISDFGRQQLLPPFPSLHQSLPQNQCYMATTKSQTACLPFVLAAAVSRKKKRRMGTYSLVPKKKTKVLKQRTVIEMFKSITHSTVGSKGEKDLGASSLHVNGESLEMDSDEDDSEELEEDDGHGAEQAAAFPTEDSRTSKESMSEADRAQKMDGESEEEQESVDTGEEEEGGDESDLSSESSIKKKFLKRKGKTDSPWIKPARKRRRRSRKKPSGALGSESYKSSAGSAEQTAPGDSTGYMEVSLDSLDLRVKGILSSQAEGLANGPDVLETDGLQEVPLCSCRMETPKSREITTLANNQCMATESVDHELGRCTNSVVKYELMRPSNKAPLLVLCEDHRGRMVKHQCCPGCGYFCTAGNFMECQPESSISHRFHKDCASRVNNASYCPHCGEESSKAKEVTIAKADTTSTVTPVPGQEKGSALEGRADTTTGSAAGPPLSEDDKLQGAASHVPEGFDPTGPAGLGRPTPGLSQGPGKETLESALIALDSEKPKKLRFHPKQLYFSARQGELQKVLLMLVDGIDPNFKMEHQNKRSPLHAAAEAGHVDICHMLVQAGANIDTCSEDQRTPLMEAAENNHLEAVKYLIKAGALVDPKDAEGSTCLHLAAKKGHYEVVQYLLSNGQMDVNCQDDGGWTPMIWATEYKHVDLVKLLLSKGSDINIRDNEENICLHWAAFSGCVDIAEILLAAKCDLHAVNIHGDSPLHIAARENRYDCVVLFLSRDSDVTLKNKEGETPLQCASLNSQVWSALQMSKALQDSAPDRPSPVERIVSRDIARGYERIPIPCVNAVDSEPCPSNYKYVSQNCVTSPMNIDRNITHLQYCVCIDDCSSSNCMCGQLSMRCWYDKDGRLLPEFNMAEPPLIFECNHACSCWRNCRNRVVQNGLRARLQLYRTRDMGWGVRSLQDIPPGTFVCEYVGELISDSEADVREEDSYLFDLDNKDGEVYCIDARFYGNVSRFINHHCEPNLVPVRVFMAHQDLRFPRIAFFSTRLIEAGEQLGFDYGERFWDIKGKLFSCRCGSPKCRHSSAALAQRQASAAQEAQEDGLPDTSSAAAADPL
Description: Inhibition of GLP (unknown origin) at 1 uM.

The nature of series [2]: Cmax in ICR mouse at 2 mg/kg, iv measured upto 12 hrs by LC-MS/MS analysis. Conditions: in vivo. It counts as ADME, organism-based.
Series [3] in a line: Mean residence time in ICR mouse at 2 mg/kg, iv measured upto 12 hrs by LC-MS/MS analysis. It counts as ADME, organism-based. Conditions: in vivo.
A short description of series [4]: AUC(0 to t) in ICR mouse at 2 mg/kg, iv measured upto 12 hrs by LC-MS/MS analysis. It counts as ADME, organism-based. Conditions: in vivo.
Series [5] has as its system MDA-MB-231. Description: Antiproliferative activity against human MDA-MB-231 cells after 5 days by MTT assay. It counts as functional, cell-based. Conditions: MDA-MB-231, 120 h. (In general: Tetrazolium assays rely on reduction of a dye to a coloured formazan, in cell work by metabolically active cells.)
The test system of series [6] is MDA-MB-231. Put plainly: Induction of apoptosis in human MDA-MB-231 cells assessed as early apoptotic cells at 5 uM incubated for 72 hrs by Annexin V and PI staining based flow cytometry analysis (reference value: 0.92 %). It counts as functional. A general note: Flow cytometry measures light scatter and fluorescence of single cells or particles in a stream.
Series [7] relates to MDA-MB-231. Description: Induction of apoptosis in human MDA-MB-231 cells assessed as early apoptotic cells at 10 uM incubated for 72 hrs by Annexin V and PI staining based flow cytometry analysis (reference value: 0.92 %). It counts as functional.
The test system of series [8] is MDA-MB-231. Description: Induction of apoptosis in human MDA-MB-231 cells assessed as viable cells at 20 uM incubated for 72 hrs by Annexin V and PI staining based flow cytometry analysis (reference value: 98.31 %). It counts as functional. Conditions: read-out: Activity.
Series [9] relates to MDA-MB-231. Put plainly: Induction of apoptosis in human MDA-MB-231 cells assessed as late apoptotic cells at 20 uM incubated for 72 hrs by Annexin V and PI staining based flow cytometry analysis (reference value: 0.45 %). It counts as functional.
For series [10], the system named is MDA-MB-231. Description: Induction of apoptosis in human MDA-MB-231 cells assessed as necrotic cells at 20 uM incubated for 72 hrs by Annexin V and PI staining based flow cytometry analysis (reference value: 0.32 %). It counts as functional.
In series [11] the test system is MDA-MB-231. Put plainly: Induction of cell cycle arrest in human MDA-MB-231 cells assessed as accumulation of cells at G2/M phase incubated for 72 hrs by PI/RNase staining based flow cytometric analysis. It counts as functional. Conditions: dose 5-20 µM.
The target of series [12] is T2, Histone-lysine N-methyltransferase EHMT1/EHMT2 (Homo sapiens) (UniProt Q9H9B1+Q96KQ7). Put plainly: Inhibition of G9a/GLP in human MDA-MB-231 cells assessed as reduction in H3K9 dimethylation incubated for 3 days by Western blotting analysis. It counts as cell-based. Conditions: dose 2.5-20 µM, time 3.0 day.
T2 sequence (Q96KQ7 whole entry, looked up, one chain of several): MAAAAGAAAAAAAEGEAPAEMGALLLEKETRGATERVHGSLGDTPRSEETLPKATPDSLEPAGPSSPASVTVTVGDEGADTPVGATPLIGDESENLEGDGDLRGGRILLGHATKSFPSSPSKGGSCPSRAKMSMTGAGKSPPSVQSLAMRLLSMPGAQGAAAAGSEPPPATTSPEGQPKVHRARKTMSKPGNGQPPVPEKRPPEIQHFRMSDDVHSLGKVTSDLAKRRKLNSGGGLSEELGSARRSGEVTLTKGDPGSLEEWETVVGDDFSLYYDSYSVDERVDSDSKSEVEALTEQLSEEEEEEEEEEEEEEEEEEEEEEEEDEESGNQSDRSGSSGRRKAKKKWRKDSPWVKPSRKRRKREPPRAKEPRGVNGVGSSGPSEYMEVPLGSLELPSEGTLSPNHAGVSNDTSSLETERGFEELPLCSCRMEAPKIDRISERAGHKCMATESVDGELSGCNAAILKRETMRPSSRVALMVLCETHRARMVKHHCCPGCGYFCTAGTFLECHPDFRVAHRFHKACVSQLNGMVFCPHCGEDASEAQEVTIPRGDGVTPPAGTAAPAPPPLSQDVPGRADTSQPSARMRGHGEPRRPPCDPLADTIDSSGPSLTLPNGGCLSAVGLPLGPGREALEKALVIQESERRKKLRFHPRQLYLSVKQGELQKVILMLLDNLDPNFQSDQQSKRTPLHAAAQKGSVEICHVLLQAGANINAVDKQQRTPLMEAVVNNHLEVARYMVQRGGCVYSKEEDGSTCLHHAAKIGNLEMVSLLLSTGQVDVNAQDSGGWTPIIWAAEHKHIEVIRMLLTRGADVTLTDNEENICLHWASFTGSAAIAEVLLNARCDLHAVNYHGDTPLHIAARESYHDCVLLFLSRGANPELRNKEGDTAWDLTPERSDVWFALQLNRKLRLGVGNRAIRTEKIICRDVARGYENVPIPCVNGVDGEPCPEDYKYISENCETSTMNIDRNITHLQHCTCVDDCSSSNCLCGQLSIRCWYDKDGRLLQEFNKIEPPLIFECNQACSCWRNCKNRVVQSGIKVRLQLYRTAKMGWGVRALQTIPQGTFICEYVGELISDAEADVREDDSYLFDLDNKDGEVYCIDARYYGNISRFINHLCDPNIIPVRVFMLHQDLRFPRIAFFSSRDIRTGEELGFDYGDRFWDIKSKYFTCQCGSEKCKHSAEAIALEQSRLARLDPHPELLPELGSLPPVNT
For series [13], the target named is T2, Histone-lysine N-methyltransferase EHMT1/EHMT2 (Homo sapiens). Put plainly: Inhibition of G9a/GLP in human MDA-MB-231 cells assessed as reduction in H3K9 dimethylation at 20 uM incubated for 1 day followed by compound washout and measured after 1 to 4 days. It counts as cell-based.
Series [14] can be described thus: Cytotoxicity against human L02 cells assessed as reduction in cell viability incubated for 2 days by MTT assay. It counts as toxicity, cell-based.

Take `C=CC(=O)Nc1cccc(-c2nc(NC3CCN(C)CC3)c3cc(OC)c(OC)cc3n2)c1`: the inhibition result in [1] and in series [13] was “Active” throughout. In addition, the highest level in series [2] (Cmax) was 911 ng/mL. Besides, in series [3], the MRT (commonly a mean duration of stay, worked out from the concentration-time curve) stood at 2.3 h. Also, in series [4], the AUC(0-t) – broadly, exposure summed from dosing to a finite time, without extrapolation to infinity – at 12 h was found to be 1650 ng·h/mL. Moreover, in series [5], the midpoint of inhibition, the IC50, lay at 0.598 µM. In addition, the Activity in [6] is 1.44%; in [7] it was 3.7%; in series [9], 34.86%; in series [10] it was 4.23%; in series [11] it was “Dose-Dependent Effect”. In addition, the viability at 20 µM in series [8] worked out at 39.3%. Moreover, the inhibition result in [12] is “Dose-Dependent Effect”. In [14], the concentration for half-maximal inhibition (IC50) (usually the concentration that gives 50% inhibition) at 2 days worked out at 10.3 µM.
